Literature values as cited in patent US9770423B2, “Modulation sAPP, sAAPα and BDNF levels in individuals diagnosed with FXS and ASD” (Indiana University Research and Technology Corp., priority 2012, dated 2017).

Experiments:
fmr1 knockout mouse = conditions: literature; cited from earlier work
subjects with FXS = conditions: cited from earlier work
[1] = test system: cerebellar granule cells from FMR1 knockout mice; conditions: cultured cerebellar granule cells from FMR1 knockout mice; cited from earlier work
[2] = test system: persons with FXS and comorbid ASD; conditions: cited from earlier work
adults with FXS = conditions: single dose, cited from earlier work
males with FXS = conditions: cited from earlier work
[3] = test system: drinking-in-the-dark mouse model; conditions: cited from earlier work

Cc1cccc(C#Cc2ccccc2)n1 [MPEP, 2-methyl-6-(phenylethynyl)-pyridine]
effect on phenotype of fmr1 knockout mice (fmr1 knockout mouse): reverse phenotypic characteristics, including audiogenic seizures, altered pre-pulse inhibition (PPI), and open field hyperactivity

NCCS(=O)(=O)O [taurine]
effect on phenotype of fmr1 knockout mice (fmr1 knockout mouse): Improvements in memory acquisition and retention

NC[C@H](CC(=O)O)c1ccc(Cl)cc1 (single isomer, unassigned) [STX209]
effect on phenotype of fmr1 knockout mice (fmr1 knockout mouse): correction of aberrant protein synthesis and dendritic spine abnormalities
ABC-SW and VABS Socialization, post-hoc subset (subjects with FXS; 27 subject subset with baseline ABC-SW score of ≧8): significant STX209-associated improvement
primary outcome measure, ABC Irritability (ABC-I) subscale (subjects with FXS; 63 subjects aged 6 to 40 years with FXS): not associated with improvement
Social Avoidance scale (ABC-SA), post-hoc analysis (subjects with FXS; 63 subjects with FXS): significant group-wide improvement
global measures (CGI-I, CGI-S), other ABC subscales, Visual Analog Scale (subjects with FXS; 63 subjects with FXS): Group-wide effects were also not noted
subjects reporting sedation (subjects with FXS; 63 subjects with FXS): 8%

CC(=O)[C@H]1CC[C@H]2[C@@H]3CC[C@H]4C[C@H](O)CC[C@]4(C)[C@H]3C(=O)C[C@]12C [alphaxalone]
effect on phenotype of fmr1 knockout mice (fmr1 knockout mouse): reductions in anxiety and rescue of audiogenic seizures

CC12CC3CC(C)(C1)CC(N)(C3)C2 [memantine]
dendritic spine development and synapse formation [1]: correction of dendritic spine development and synapse formation
subjects with clinical response (CGI-I very much improved or much improved) ([2]; four of 6 persons with FXS and comorbid ASD): 67%
subjects with treatment limiting irritability ([2]; of 6 persons): Two subjects

CN1CC(=O)NC1=NC(=O)Nc1cccc(Cl)c1 [fenobam]
subjects experiencing mild sedation (adults with FXS; 3 of 12 adults with FXS): 25%
subjects who experienced clinical benefit (adults with FXS; 9 of 12 adults with FXS, reductions in hyperactivity and anxiety): 75%
pharmacokinetics (adults with FXS; 12 adults with FXS): variable pharmacokinetics
tolerability (adults with FXS; 12 adults with FXS): good tolerability

COC(=O)N1CC[C@@H]2[C@H]1CCC[C@@]2(O)C#Cc1cccc(C)c1 [AFQ056]
response in subset with full FMR1 gene methylation (ABC, CGI-I, Visual Analogue Scale, Repetitive Behavior Scale-Revised) (males with FXS; 7 subject subset): significant response to AFQ056 compared to placebo
group treatment effect (males with FXS; 30 males with FXS aged 18 to 35 years): not associated with significant group treatment effect

Cc1nc(C#Cc2cccnc2)cs1 [MTEP, 3-((2-Methyl-4-thiazolyl)ethynyl)pyridine]
alcohol intake [3]: reduced alcohol intake

Oc1noc2c1CCNC2 [gaboxadol]
effect on phenotype of fmr1 knockout mice (fmr1 knockout mouse): restored neuron excitability deficits in the amygdala, reduced hyperactivity, and reduced PPI deficits
